According to paper PMC13022235 (Nature Communications, 2026):
Changes are numbered by the printed parent chain. “Also recorded” adds a separate entry of the source.

Assays:
[1] = test system: chronic constriction injury (CCI) mice; assay: CCI model, cold allodynia; format: in vivo, mouse; details: for reduction of cold allodynia vs vehicle: acetone
male C57BL/6 J mice = assay: Conditioned place preference; format: in vivo, mouse
hGlyT2^W215F [2] = biological target: T1, hGlyT2^W215F (Homo sapiens, UniProt Q9Y345, W215F); format: cell-based
T1 sequence (Q9Y345 1-797 W215F): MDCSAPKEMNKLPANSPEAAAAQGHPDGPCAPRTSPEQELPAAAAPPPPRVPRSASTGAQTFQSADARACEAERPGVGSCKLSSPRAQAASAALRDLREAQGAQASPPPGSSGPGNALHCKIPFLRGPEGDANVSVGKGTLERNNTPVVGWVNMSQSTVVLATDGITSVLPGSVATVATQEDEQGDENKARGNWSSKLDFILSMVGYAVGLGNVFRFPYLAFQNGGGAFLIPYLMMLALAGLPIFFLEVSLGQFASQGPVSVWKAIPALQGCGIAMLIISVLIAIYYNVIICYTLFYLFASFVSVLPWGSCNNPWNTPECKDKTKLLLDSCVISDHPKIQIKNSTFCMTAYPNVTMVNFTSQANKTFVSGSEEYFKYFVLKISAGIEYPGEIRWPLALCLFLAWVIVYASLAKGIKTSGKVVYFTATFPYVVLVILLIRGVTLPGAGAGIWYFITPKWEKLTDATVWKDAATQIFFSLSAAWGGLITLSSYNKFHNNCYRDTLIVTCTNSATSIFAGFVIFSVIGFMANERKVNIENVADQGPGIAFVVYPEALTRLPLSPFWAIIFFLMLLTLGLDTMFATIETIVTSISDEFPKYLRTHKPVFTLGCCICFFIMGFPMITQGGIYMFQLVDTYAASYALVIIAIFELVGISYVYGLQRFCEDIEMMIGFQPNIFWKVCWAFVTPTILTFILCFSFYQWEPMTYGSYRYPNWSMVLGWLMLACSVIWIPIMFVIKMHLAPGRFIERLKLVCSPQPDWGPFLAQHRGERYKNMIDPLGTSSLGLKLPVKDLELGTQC

hGlyT2^D633E [3] = biological target: T2, hGlyT2^D633E (Homo sapiens, UniProt Q9Y345, D633E); format: cell-based; details: D633E mutation
T2 sequence (Q9Y345 1-797 D633E): T1 sequence (Q9Y345 1-797 W215F) with F215W, D633E

hGlyT1^WT = biological target: T3, hGlyT1^WT (Homo sapiens, UniProt P48067); assay: Two-electrode voltage clamp, GlyT1 selectivity test in oocytes; format: cell-based; details: 10 µM
T3 sequence (P48067 1-706): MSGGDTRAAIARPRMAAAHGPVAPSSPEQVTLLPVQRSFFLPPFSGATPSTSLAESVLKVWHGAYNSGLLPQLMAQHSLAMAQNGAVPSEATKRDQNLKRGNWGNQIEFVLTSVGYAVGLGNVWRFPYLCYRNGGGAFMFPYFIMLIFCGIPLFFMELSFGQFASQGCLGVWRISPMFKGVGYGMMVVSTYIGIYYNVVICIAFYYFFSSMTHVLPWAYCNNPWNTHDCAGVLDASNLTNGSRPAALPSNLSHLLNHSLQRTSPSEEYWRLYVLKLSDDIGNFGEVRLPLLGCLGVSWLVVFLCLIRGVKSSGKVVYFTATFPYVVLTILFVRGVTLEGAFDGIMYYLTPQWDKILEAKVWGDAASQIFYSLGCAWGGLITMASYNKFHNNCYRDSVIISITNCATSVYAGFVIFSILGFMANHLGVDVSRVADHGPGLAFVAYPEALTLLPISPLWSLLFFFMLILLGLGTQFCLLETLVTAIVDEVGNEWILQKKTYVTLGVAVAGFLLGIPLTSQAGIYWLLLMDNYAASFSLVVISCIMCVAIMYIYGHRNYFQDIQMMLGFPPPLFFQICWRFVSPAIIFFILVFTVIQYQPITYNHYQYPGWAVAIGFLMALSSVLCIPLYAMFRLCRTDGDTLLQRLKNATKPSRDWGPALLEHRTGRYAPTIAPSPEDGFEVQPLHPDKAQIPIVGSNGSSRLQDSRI

hGlyT2^WT [4] = biological target: T4, hGlyT2^WT (Homo sapiens, UniProt Q9Y345); format: cell-based; details: glycine dose-responses with RPI-GLYT2-82
T4 sequence (Q9Y345 1-797): T1 sequence (Q9Y345 1-797 W215F) with F215W

hGlyT2^W215F [5] = biological target: T1, hGlyT2^W215F; assay: Reversibility from inhibition; format: cell-based
hGlyT2^D633E [6] = biological target: T2, hGlyT2^D633E; assay: Reversibility from inhibition; format: cell-based; details: GlyT2^D633E
[7] = PK Study 2: in-life plasma and CNS drug exposure after 50 mg/kg i.p.; format: in vivo, male C57BL/6 mice; details: 30 min
[8] = test system: chronic constriction injury (CCI) mice; assay: CCI model, mechanical allodynia; format: in vivo, mouse
[9] = test system: partial sciatic nerve ligation (PSNL) mice; assay: PSNL model, mechanical allodynia; format: in vivo, mouse; details: 50 mg/kg i.p.
naïve mice = assay: Accelerating rotarod, motor coordination; format: in vivo, mouse
mice [10] = assay: Side effect scoring; format: in vivo, mouse; details: 250 mg/kg i.p.
naïve, uninjured mice = assay: Whole-body plethysmography; format: in vivo, mouse
hDAT = hDAT (Homo sapiens, UniProt Q01959); assay: Cerep binding assay, displacement of 3H-BTCP; details: 10 μM
hNET = hNET (Homo sapiens, UniProt P23975); assay: Cerep binding assay, displacement of 3H-nisoxetine; details: 10 μM
mice [11] = details: cited from earlier work
GlyT2 = details: read-out: IC50 for GlyT2; cited from earlier work
hGlyT2^WT [12] = biological target: T4, hGlyT2^WT; assay: Reversibility from inhibition; format: cell-based

Chain of hNET (P23975 whole entry): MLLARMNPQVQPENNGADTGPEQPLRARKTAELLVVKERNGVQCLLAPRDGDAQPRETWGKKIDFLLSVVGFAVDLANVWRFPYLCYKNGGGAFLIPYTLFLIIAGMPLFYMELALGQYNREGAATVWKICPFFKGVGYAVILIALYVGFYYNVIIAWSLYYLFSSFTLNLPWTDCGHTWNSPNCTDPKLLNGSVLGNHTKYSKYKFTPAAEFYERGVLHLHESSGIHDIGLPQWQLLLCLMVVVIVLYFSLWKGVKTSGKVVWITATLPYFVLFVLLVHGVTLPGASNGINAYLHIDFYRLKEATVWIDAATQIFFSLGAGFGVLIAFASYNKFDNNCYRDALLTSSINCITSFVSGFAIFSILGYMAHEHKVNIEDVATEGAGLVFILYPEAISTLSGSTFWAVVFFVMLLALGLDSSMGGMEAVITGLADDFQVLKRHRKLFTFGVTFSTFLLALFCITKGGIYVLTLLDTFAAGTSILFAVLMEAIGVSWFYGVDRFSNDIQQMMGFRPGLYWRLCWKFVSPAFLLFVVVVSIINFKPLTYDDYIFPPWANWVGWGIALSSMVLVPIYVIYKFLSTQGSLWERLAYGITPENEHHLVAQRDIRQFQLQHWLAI
Chain of hDAT (Q01959 whole entry): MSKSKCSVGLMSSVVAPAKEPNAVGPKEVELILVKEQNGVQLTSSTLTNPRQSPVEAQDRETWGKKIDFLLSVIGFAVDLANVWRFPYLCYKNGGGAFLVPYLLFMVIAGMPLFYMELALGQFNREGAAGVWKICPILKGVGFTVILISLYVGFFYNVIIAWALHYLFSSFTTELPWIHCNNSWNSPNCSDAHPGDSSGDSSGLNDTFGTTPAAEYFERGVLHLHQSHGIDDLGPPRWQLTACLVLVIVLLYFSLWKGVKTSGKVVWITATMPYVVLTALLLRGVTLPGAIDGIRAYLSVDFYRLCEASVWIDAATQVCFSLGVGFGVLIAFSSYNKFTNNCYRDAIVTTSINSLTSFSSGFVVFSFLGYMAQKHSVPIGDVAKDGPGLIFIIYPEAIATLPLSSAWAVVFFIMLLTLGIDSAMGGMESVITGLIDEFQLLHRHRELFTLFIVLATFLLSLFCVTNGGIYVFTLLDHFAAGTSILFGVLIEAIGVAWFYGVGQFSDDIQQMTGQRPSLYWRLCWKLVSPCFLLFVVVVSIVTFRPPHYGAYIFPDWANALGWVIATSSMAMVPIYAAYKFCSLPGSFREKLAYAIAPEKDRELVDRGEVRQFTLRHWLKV

NCC1(CC(=O)O)CCCCC1 [Gabapentin, reference compound]
reduction of cold allodynia vs vehicle ([1]; gabapentin 100 mg/kg): significant at 1-6 hours

CN1CC[C@]23c4c5ccc(O)c4O[C@H]2[C@@H](O)C=C[C@H]3[C@H]1C5 [Morphine, reference compound]
conditioned place preference (male C57BL/6 J mice; morphine 10 mg/kg i.p.): significant increase in preference for the paired chamber

CN(C)C1(CNC(=O)c2ccc3c(c2)CCN3C(=O)c2ccccc2)CCOCC1 [RPI-GLYT2-82, 1-benzoyl-N-((4-(dimethylamino)tetrahydro-2H-pyran-4-yl)methyl)indoline-5-carboxamide]
IC50 (hGlyT2^W215F [2]): > 30 µM
decrease in potency of inhibition vs WT (hGlyT2^D633E [3]): > 18 fold
effect on GlyT1 (hGlyT1^WT): minimal effect on GlyT1
mechanism of inhibition (hGlyT2^WT [4]): non-competitive inhibitor
washout (hGlyT2^W215F [5]; GlyT2^W215F): almost immediate
washout (hGlyT2^D633E [6]): almost immediate
Cu,b, calculated unbound concentration in brain [7]: 597.89 nM
efficacy against mechanical allodynia vs vehicle ([8]; 50 mg/kg i.p.): significant at 2 and 3 hours post-injection compared to vehicle
efficacy against mechanical allodynia vs vehicle ([8]; 100 mg/kg i.p.): showed a similar trend at 2 and 3 hours
anti-allodynia, time of maximum efficacy ([8]; von Frey, 50 and 100 mg/kg i.p.): maximum efficacy between 90 min and 3 hours post-administration
time of peak anti-allodynia effects, cold allodynia ([1]; 50 and 100 mg/kg i.p.): ≤ 2 h
reduction of cold allodynia vs vehicle ([1]; 50 and 100 mg/kg i.p.): significantly reduced cold allodynia between 0.5 and 6-hours postinjection compared to vehicle
reduction of mechanical allodynia vs vehicle [9]: significant at 90 minutes and 2-hours post-injection compared to vehicle
neuromotor effects / muscle weakness (naïve mice; 50 mg/kg, rotarod, grip strength, sedation): No deficits were observed; also recorded: not associated with adverse neuromotor effects or muscle weakness
initial reduction in baseline rotarod performance (naïve mice; 250 mg/kg i.p.): 61%
sedation (mice [10]): transient sedation, which was most apparent in the first 15–30 minutes and fully recovered by 90 minutes
respiration (naïve, uninjured mice; 50 mg/kg): did not change respiration frequency, minute volume (MVb), or tidal volume (TVb)
respiration (naïve, uninjured mice; 250 mg/kg i.p.): transient changes in respiratory frequency and MVb in the first hour, and TVb in the first 30 min
conditioned place preference (male C57BL/6 J mice; 50 and 150 mg/kg i.p.): no significant preference
displacement of 3H-BTCP from hDAT / inhibition (hDAT): ~ 20%
displacement of 3H-nisoxetine from hNET / inhibition (hNET): < 5%

CCCCCCCC/C=C\CCCCCCCC(=O)N[C@H](CCCCN)C(=O)O [oleoyl-D-lysine]
effects on inflammatory and acute nociceptive pain thresholds (mice [11]): no effects on inflammatory and acute nociceptive pain thresholds

CCCCOc1c(OC)cc(C(=O)NCC2(N(C)C)CCOCC2)cc1OC [opiranserin]
IC50 (GlyT2): 0.86 µM

COc1cc(C(=O)NCC2(N(C)C)CCCC2)cc(OC)c1OCc1ccccc1 [ORG25543, 4-(benzyloxy)-N-{[1-(dimethylamino)cyclopentyl]methyl}−3,5-dimethoxybenzamide]
decrease in potency of inhibition vs WT (hGlyT2^W215F [2]; W215F mutation): ~ three-fold
decrease in potency of inhibition vs WT (hGlyT2^D633E [3]): ~ 14 fold
reversibility of inhibition (hGlyT2^WT [12]; hGlyT2, washout 30 min): prolonged inhibitory effects with minimal restoration of glycine-induced currents
currents restored, % of pre-inhibitor levels (hGlyT2^WT [12]; hGlyT2^WT, 30 minutes washout): 12.5%
effect of mutation on washout (hGlyT2^W215F [5]; hGlyT2^W215F): significantly increased the rate of ORG25543 washout
mechanical allodynia (mice [11]; 50 mg/kg): reversed mechanical allodynia
side effects (mice [11]; 50 mg/kg): near-complete loss of rotarod performance, seizures and in one case, lethality
effects on inflammatory and acute nociceptive pain thresholds (mice [11]): no effects on inflammatory and acute nociceptive pain thresholds
